These results are taken from patent publication US11266715B2, “C3A receptor agonists for use against ischemic brain injury, stroke, traumatic brain injury, spinal cord injury and neurodegenerative disorders” (priority 2016, dated 2022).

What all share (format): in vivo, mouse
For one test, the system named is NeuN+ cells. As to the kind of experiment: NeuN positive cell density in dorsal hippocampus after neonatal HI. How it is done: Neuronal nuclei (NeuN), growth associated protein 43 (GAP-43), synapsin I (SYN), vesicular glutamate transporter 1 (VGLUT1), Glial Fibrillary Acidic Protein (GFAP) and ionized calcium-binding adapter molecule 1 (Iba-1) were visualized in the cornu ammonis (CA) and dentate gyrus (DG) of the dorsal hippocampus by immunohistochemistry. Briefly, following heat-induced antigen retrieval with 0.01 M citrate buffer (pH 6, 0.05% Tween 20) for 3×5 min, sections were washed 3×5 min with PBS-T (0.05% Tween 20), non-specific protein binding was reduced by incubation with blocking buffer [4% normal donkey serum (NeuN and Iba-1), 1% bovine serum albumin (GAP-43 and SYN), 3% normal goat serum (VGLUT1), 2% bovine serum albumin (GFAP) in PBS-T] for 1 h at room temperature (RT). Tissue was then incubated with the primary antibody [anti-NeuN biotinylated (1:200, MAB 377B, Millipore, Mass., USA), anti-GAP-43 (1:1000, MAB347, Millipore, Mass., USA), anti-SYN (1:150, SC-7379, Santa Cruz, Calif., USA), anti-VGLUT1 (1:500, AB5905, Millipore, Mass., USA), anti-GFAP (1:200, Z0334, Dako, Stockholm, Sweden), anti-Iba-1 (1:500, 019-19741, Wako, Osaka, Japan)] in blocking buffer overnight at 4° C. One slide per staining batch was incubated only with blocking buffer without primary antibody and used as a negative control. Next, sections were washed 3×5 min with PBS-T and incubated with the secondary antibody [rabbit-anti mouse biotinylated Ig (1:200, GAP-43, E0354, Dako, Stockholm, Sweden), donkey-anti goat biotinylated Ig (1:200, SYN, 705065147, Jackson ImmunoResearch Inc., PA, USA), Alexa Fluor 488 goat-anti guinea pig Ig (1:500, VGLUT1, A11073, Molecular Probes, Oregon, USA), Alexa Fluor 488 goat-anti rabbit (1:2000, GFAP, A11034, Molecular Probes, Oregon, USA), donkey-anti rabbit biotinylated (1:500, Iba-1, 711-065-152, Jackson ImmunoResearch Inc., PA, USA), in blocking buffer for 1 h at RT. After washing 3×5 min with PBS-T, sections were incubated with Streptavidin-Cy3 (1:100 (GAP-43, SYN), 1:300 (NeuN), S6402, Sigma-Aldrich, Missouri, USA) in blocking buffer for 1 h at RT. Then, sections were washed 3×5 min with PBS-T, mounted with Pro Long Gold (P36931, Life Technologies, CA, USA) and cover slipped for 24 h before being sealed with nail polish. […]
(§1) NeuN positive cells, GFAP positive relative area, as well as GAP-43, SYN, and VGLUT1 positive puncta were counted by using MetaMorph software (ver. 7.8.6, Molecular Devices, CA, USA) on confocal images obtained with a 20× (NeuN and GFAP) or 63× (GAP-43, SYN, and VGLUT1) objective (Carl Zeiss LSM 700 Laser Scanning Microscope, Jena, Germany). Iba-1 positive cell somata were counted on bright field images obtained with a 20× objective (Nikon Eclipse 80i). […]

The next test deals with VGLUT1+ puncta. Put plainly: VGLUT1 immunostaining of dorsal hippocampus after neonatal HI. Particulars: between groups or hemispheres. How it is done:
Neuronal nuclei (NeuN), growth associated protein 43 (GAP-43), synapsin I (SYN), vesicular glutamate transporter 1 (VGLUT1), Glial Fibrillary Acidic Protein (GFAP) and ionized calcium-binding adapter molecule 1 (Iba-1) were visualized in the cornu ammonis (CA) and dentate gyrus (DG) of the dorsal hippocampus by immunohistochemistry. Briefly, following heat-induced antigen retrieval with 0.01 M citrate buffer (pH 6, 0.05% Tween 20) for 3×5 min, sections were washed 3×5 min with PBS-T (0.05% Tween 20), non-specific protein binding was reduced by incubation with blocking buffer [4% normal donkey serum (NeuN and Iba-1), 1% bovine serum albumin (GAP-43 and SYN), 3% normal goat serum (VGLUT1), 2% bovine serum albumin (GFAP) in PBS-T] for 1 h at room temperature (RT). […]
as §1

The test system of the next test is Iba-1+ cells. Put plainly: Iba-1 positive cell density in dorsal hippocampus after neonatal HI. Particulars: P55, 3 days treatment after HI. How it is done:
On P51 (long-term study) or P55 (short-term study), mice were deeply anesthetized with thiopental [Pentothal Sodium (0.01 ml/g body weight), Hospira, Ill., USA)] and transcardially perfused with 0.9% saline, followed by 4% paraformaldehyde (PFA) in 0.1 M PBS. Brains were removed and post-fixed in 4% PFA at 4° C. for 24 h followed by 70% ethanol for 24 h. Tissue was processed using an automatic tissue processor (SAKURA Tissue Tek VIP 3000, Tournai, Belgium) and embedded in paraffin. Brains were cut at room temperature into 8-μm serial coronal sections using a sliding microtome (Microm HM 450, Thermo Scientific, Massachusetts, USA), attached to silane coated slides and dried at RT. […]
as §1

Consider “C3a: Purified human C3a peptide (Complement Technologies), C3a receptor agonist, amino acid sequence SEQ ID NO: 1”, for which the “neuronal density in CA1 and CA3, ipsilesional vs contralesional hemisphere” value in the test on NeuN+ cells (both HI groups, p<0.01 and p<0.05) is recorded as “decreased in the ipsilesional hemisphere”. Also, the “NeuN+ cell density in the DG” value in the test with NeuN+ cells (data not shown) is listed as “No effect”. The “number of NeuN+ cells in injured CA3 vs sham mice” value in the test with NeuN+ cells (p<0.01) is recorded as “lower compared with sham mice”. The “number of NeuN+ cells in injured CA1 vs sham mice” value in the test with NeuN+ cells (p<0.05 for PBS) is recorded as “of PBS but not C3a treated mice was lower compared with sham mice”. Further, in the test on VGLUT1+ puncta, the “density or average area of VGLUT1+ puncta in CA1 or dentate gyrus” value is given as “did not find any differences”. Besides, the “density of Iba-1+ cells, ipsilateral vs contralateral” value in the test with Iba-1+ cells is listed as “did not differ between the hemispheres”.
